Data taken from paper PMC4259358, “Functional Characterization of Nuclear Localization and Export Signals in Hepatitis C Virus Proteins and Their Role in the Membranous Web” (PLoS ONE, 2014).

Tests used:
[1] = tested on: JFH-1 HCV; type: cell-based, Hepatitis C virus
Experimental: Huh7.5 cells were infected with JFH-1 HCV and maintained at 4°C for 4 hours (h) to synchronize the cells before shifting the temperature to 37°C. Post temperature shift (PTS), infected cells were incubated for various lengths of times prior to the addition of peptides or known inhibitors of HCV at 2 h intervals. […] We deliberately selected the final time point of 72 h PTS to reflect the number of cells infected by a second round of infection. […] This would be reflected by the number of cells infected in the second round as measured at 72 h PTS.
In order to elucidate the time points in infection when the nuclear transport signals bearing peptides are functional, cells were synchronously infected and treated with the indicated peptides. Each time point (2 h intervals) represents a culture treated with the indicated reagent at the specified time post temperature shift (PTS) and initiation of HCV infection. […] (A) Known inhibitors of HCV production (Ezetimibe (30 µM), LMB (18 nM), BMS-986094 (10 nM) and DGAT 1 inhibitor (10 nM)) and control (Pen peptide 100 µM, DMSO 2%, no treatment, and no infection) were examined. […] Error bars represent ± standard deviation, n = 3.
For the time of addition experiments, cells were seeded at a density of 6.25×10^4 cells/well in a 96-well plate and infected with 0.1 genomic equivalents of serially passaged JFH-1 virus on ice: cells then were incubated at 4°C for 4 h.
Briefly, Huh7.5 cells were infected as described above and the test compounds were added to different wells at different time points before the temperature shift (-4 h and -2 h) and every 2 h after the temperature shift (0, 2, 4,…, 48 h). […] The infection levels were calculated by counting infected and total cells numbers in ten random fields for each condition. The non-treated cell infection level was normalized to 100% and all other infections were calculated based on that normalization.

[2] = tested on: JFH-1 HCV; details: literature value; cited from earlier work
Experimental: Ezetimibe is known to inhibit a late stage of HCV entry, and it lost its ability to inhibit HCV infection when added 4–10 h PTS, thus defining the last phase of entry (Fig. 6A). […] In our study, the inhibitory effect of LMB was lost 10–14 hours PTS (Fig. 6A). BMS-986094, an inhibitor of NS5B polymerase, lost its ability to inhibit HCV infection when added 10–24 h PTS, thus defining the period of viral RNA synthesis (Fig. 6A). The ...

[3] = target: T1, XPO1 (Homo sapiens, UniProt O14980); assay: ELISA-based binding assay (Kd(app))
T1 construct: Expression and purification of full length XPO1 were perform according to methods described in a previous publication; His tag; made in house; host or cells: Escherichia coli BL21(DE3), pET21 vector
T1 sequence (O14980 whole entry): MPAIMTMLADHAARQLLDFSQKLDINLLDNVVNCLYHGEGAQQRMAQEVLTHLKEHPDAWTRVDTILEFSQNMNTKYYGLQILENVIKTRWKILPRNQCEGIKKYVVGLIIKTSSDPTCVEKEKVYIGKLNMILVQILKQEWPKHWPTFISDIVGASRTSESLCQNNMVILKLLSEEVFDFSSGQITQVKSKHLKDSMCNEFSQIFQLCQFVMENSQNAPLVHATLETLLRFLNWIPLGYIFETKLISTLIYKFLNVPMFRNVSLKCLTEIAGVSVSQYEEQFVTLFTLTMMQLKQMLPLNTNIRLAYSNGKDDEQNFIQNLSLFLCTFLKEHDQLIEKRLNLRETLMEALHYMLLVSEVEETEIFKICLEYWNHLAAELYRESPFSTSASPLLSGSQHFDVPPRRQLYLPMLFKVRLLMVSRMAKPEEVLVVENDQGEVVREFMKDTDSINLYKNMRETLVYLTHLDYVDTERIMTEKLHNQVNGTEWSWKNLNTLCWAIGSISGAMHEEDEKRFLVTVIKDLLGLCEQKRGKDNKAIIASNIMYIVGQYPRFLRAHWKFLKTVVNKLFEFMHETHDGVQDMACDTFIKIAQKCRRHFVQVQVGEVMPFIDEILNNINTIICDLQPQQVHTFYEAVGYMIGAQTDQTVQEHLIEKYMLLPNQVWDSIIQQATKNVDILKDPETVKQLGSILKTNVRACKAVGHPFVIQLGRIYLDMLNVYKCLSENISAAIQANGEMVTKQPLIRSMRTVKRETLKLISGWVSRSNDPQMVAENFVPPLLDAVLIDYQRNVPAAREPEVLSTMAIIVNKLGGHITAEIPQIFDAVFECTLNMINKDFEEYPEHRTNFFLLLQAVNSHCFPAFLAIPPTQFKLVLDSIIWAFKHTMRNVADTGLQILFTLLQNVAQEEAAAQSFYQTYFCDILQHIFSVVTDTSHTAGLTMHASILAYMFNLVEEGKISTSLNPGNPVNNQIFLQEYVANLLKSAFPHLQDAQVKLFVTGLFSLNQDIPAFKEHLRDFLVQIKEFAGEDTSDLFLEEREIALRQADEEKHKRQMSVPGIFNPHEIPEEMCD

[4] = tested on: HEK293T cells; assay: Localization of nuclear transport signal-double GFP reporter in HEK293T cells; type: cell-based; design: key: +++ for strong; ++ for moderate; + for weak; − for no localization; details: double GFP cargo, 24 h post transfection, fluorescence quantified with ImageJ (S6, S7 Figures); NES/SEN on SV40 NLS double GFP
Excerpt: To determine whether NTF binding sites found in the HCV proteins were functional nuclear transport signals, we constructed reporter proteins each consisting of one of the HCV proteins NTF binding sites followed by two C-terminal, tandemly repeated GFP molecules. The double GFP moieties were required to keep the reporter from entering the nucleus, since a single GFP is small enough to diffuse freely through NPCs, [35]. As controls, constructs containing the reversed amino-acid residue sequence of the potential NLS (SLN) were also examined using the double GFP reporter assay (S5 Figure). These SLN reporters were predicted to not accumulate in the nucleoplasm. In addition, reporters to examine the functionality of the potential XPO1 binding domains were also constructed. These reporters consist of an SV40 NLS and a double GFP molecule followed by one of the various potential NESs at the C-terminus (S5 Figure). In the absence of a functional NES, this reporter will accumulate in the nucleus. However, a functional NES is predicted to export the reporter, leading to increased steady-state levels of the reporter in the cytoplasm.
Figure 4 Functionality of the putative nuclear transport signals in cells. Cells were transfected by the vectors encoding a nuclear transport reporter consisting of a tandemly repeated double GFP fused to the indicated C-terminal nuclear transport signal (panels A-N). At 24 h following transfection, cells were fixed and stained with Hoechst to visualize the nucleus. Cells were examined using a Zeiss inverted Axiovert 200 M microscope to assess the localization of the GFP (green) and its relationship to the nucleus (blue). A hashed yellow square demarcates the magnified area shown in the right-most image of each panel. Fluorescent intensity was quantified using ImageJ v. […] Analysis of the reverse sequences of each transport signal as well as the mutant SV40 NLS was also performed and the results are shown in S7 Figure.
Nuclear transport signals-double GFP constructs were transfected into HEK293T cells using lipofectamine 2000. At 24 h post transfection cells were fixed, stained, and visualized for localization of the GFP. For detailed information see S1 Methods.
Nuclear transport signal-double GFP constructs were transfected into HEK293T cells using lipofectamine 2000 reagent (Invitrogen, 11668019). At 24 h post transfection cells were fixed with 3.76% formaldehyde at room temperature (Sigma, F8775-500ML) for 8 min then permeabilized in 0.2% Triton X-100 (VWR, CA97062-208) for 2 min. Cells were washed three times with X1 PBS and were stained with Hoechst 1:5000 in X1 PBS for 5 min followed by three washes with X1 PBS. The cells were visualized using a Zeiss inverted Axiovert 200M microscope with a 20x/0.8 objective lens to examine localization of the GFP. At least ten random fields of cells were imaged for each combination. Channels were merged using ImageJ software (National Institutes of Health). Photoshop Elements 10 (Adobe) software was used to adjust brightness and contrast levels for individual images and to assemble images into figures.

[5] = target: T2, IPOA5 (Homo sapiens, UniProt P52294); assay: biochemical; type: binding; details: ELISA, immobilized peptide or HCV protein
T2 construct: Expression and purification of full length IPOA5, IPO5 were perform according to methods described previously; His tag; made in house; host or cells: Escherichia coli BL21(DE3), pET21 vector
T2 sequence (P52294 whole entry): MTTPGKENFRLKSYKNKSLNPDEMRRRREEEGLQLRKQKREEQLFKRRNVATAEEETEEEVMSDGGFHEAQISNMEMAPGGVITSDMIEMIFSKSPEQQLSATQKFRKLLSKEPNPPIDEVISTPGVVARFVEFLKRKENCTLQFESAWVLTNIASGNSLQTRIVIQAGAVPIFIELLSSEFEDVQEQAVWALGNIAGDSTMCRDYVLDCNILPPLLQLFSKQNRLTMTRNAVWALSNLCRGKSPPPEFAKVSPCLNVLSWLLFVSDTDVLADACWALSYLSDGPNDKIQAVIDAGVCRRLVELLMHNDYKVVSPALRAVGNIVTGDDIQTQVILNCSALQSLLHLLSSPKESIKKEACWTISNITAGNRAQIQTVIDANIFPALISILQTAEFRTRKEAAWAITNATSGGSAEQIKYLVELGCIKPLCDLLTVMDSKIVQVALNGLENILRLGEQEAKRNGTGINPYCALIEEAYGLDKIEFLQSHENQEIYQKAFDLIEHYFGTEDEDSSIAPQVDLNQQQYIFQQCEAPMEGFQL

[6] = tested on: core- and NS2-XPO1 interactions; assay: Peptide competition of HCV protein-NTF interaction (ELISA in-vitro, Co-IP in cell culture); type: biochemical; details: plates coated with HCV protein, 100 µM peptide, n = 3
Experimental: (§1) To examine the specificity of the interactions between HCV proteins and NTFs, we examined the ability of each putative NLS or NES peptide identified in Fig. 1 to disrupt the interaction between the HCV protein and the NTF, using an ELISA in-vitro and co-immunoprecipitation (Co-IP) in cell culture assays (Fig. 3, S3 and S4 Figure). The ELISA plates were coated with HCV proteins while NTFs and competitive peptides were added, and the fraction of bound NTF was measured using NTF specific antibodies. The Co-IP was conducted by expression of V5 tagged HCV proteins in the presence of competing peptides, followed by immunoprecipitation with V5 specific antibody and immunoblotting with specific NTF antibodies.
(§2) Figure 3 Analysis of HCV protein binding to NTFs in the presence of NLS and NES peptides. ELISA plates were coated with HCV proteins and the relative binding of the different NTFs was monitored by ELISA in the presence of 100 µM of the indicated peptide. For the Co-IP study, cells were transfected by plasmid encoding to V5 tagged HCV proteins and treated by the indicated peptides. After 48 h, cells were lysed and Co-IP using anti V5 antibody and blotted to enable detection of the different NTFs. Western blots were quantified using Multi Gauge v. 3.0. […] The y-axis represents the percentage of NTF bound to the HCV protein; the interaction without the peptide is set to 100%. Error bars represent ± standard deviation, n = 3. The significant difference between the untreated (no peptide) and peptide treated is indicated by: * p<0.05, ** p<0.01, *** p<0.001, **** p<0.0001.
(§3) Protein-peptide and protein-protein binding were estimated using an ELISA-based binding assay as described previously. Briefly, ELISA plates were coated with 200 µl of a 10 µg/ml of synthetic peptide or recombinant protein in a carbonate buffer (0.05 M Na2CO3/0.05 M NaHCO3, pH 9.6) overnight at 4°C. After incubation, the solution was removed, and the plates were washed three times with PBS. […] Each measurement was performed in duplicate.

[7] = tested on: interaction of core, NS2, or NS3 with IPOA5; assay: as above; type: biochemical; details: ELISA with 100 µM peptide and Co-IP of V5 tagged HCV proteins; n = 3
Experimental: as §1, §2, §3

[8] = tested on: interaction of core, NS3, or NS5A with IPO5; assay: as above; type: biochemical; details: ELISA with 100 µM peptide and Co-IP of V5 tagged HCV proteins; n = 3
Experimental: as §1, §2, §3

Compound: O=C1[C@H](CC[C@H](O)c2ccc(F)cc2)[C@@H](c2ccc(O)cc2)N1c1ccc(F)cc1 [Ezetimibe]
- time of addition at which the ability to inhibit HCV infection is lost ([1]; Huh7.5, JFH-1, 4 h at 4°C then 37°C, added at 2 h intervals, % NS5A-positive cells at 72 h PTS, Ezetimibe 30 µM, LMB 18 nM, BMS-986094 10 nM, DGAT 1 inhibitor 10 nM, n = 3): 4–10 h PTS

Compound: CCC(=C/[C@H](C)C/C=C/C(C)=C/[C@@H](C)C(=O)[C@@H](C)[C@H](O)[C@@H](C)C/C(C)=C/C(=O)O)/C=C/[C@@H]1OC(=O)C=C[C@@H]1C [LMB, Leptomycin B]
- time at which the inhibitory effect on HCV was lost [2]: 8 h post infection

Compound: CC[C@H](C)[C@H](NC(=O)[C@H](CC(C)C)NC(=O)[C@H](CCCNC(=N)N)NC(=O)[C@H](C)NC(=O)[C@H](CC(C)C)NC(=O)[C@H](Cc1ccccc1)NC(=O)[C@H](CC(C)C)NC(=O)[C@H](CCCCN)NC(=O)[C@H](Cc1ccc(O)cc1)NC(=O)[C@H](Cc1c[nH]cn1)NC(=O)[C@@H]1CCCN1C(=O)[C@H](CO)NC(=O)[C@H](CC(C)C)NC(=O)[C@@H](NC(=O)[C@H](CC(C)C)NC(=O)[C@H](CC(C)C)NC(=O)[C@@H](NC(=O)[C@@H](N)CC(C)C)[C@@H](C)CC)[C@@H](C)O)C(=O)N[C@@H](Cc1c[nH]c2ccccc12)C(=O)N[C@@H](Cc1c[nH]c2ccccc12)C(=O)N[C@@H](CC(C)C)C(=O)N[C@@H](CCC(N)=O)C(=O)N[C@@H](Cc1ccc(O)cc1)C(=O)N[C@@H](Cc1ccccc1)C(=O)N[C@H](C(=O)N[C@H](C(=O)N[C@@H](CCCNC(=N)N)C(=O)N[C@@H](CCC(N)=O)C(=O)N[C@H](C(=O)N[C@@H](CCCCN)C(=O)N[C@H](C(=O)N[C@@H](Cc1c[nH]c2ccccc12)C(=O)N[C@@H](Cc1ccccc1)C(=O)N[C@@H](CCC(N)=O)C(=O)N[C@@H](CC(N)=O)C(=O)N[C@@H](CCCNC(=N)N)C(=O)N[C@@H](CCCNC(=N)N)C(=O)N[C@@H](CCSC)C(=O)N[C@@H](CCCCN)C(=O)N[C@@H](Cc1c[nH]c2ccccc12)C(=O)N[C@@H](CCCCN)C(=O)N[C@@H](CCCCN)C(=O)O)[C@@H](C)CC)[C@@H](C)CC)[C@@H](C)O)[C@@H](C)CC [NS2 NES]
- Kd [3]: 79.9 ± 25.6 nM

Compound: PKTKRKVRQIKIWFQNRRMKWKK [SV40 mut NLS, reference compound]
- Localization Cytoplasmic [4]: +++
- Localization Nuclear [4]: −
- binding to IPOA5 (in words) [5]: does not bind IPOA5
- effect of peptide on HCV protein-XPO1 interaction (in words), ELISA [6]: do not interfere with IPOA5, IPO5 or XPO1 binding
- effect of peptide on HCV protein-IPOA5 interaction (in words) [7]: do not interfere with IPOA5, IPO5 or XPO1 binding
- effect of peptide on HCV protein-IPO5 interaction (in words) [8]: do not interfere with IPOA5, IPO5 or XPO1 binding

Compound: RQIKIWFQNRRMKWKK [Pen]
- effect of peptide on HCV protein-XPO1 interaction (in words), ELISA [6]: do not interfere with IPOA5, IPO5 or XPO1 binding
- effect of peptide on HCV protein-IPOA5 interaction (in words) [7]: do not interfere with IPOA5, IPO5 or XPO1 binding
- effect of peptide on HCV protein-IPO5 interaction (in words) [8]: do not interfere with IPOA5, IPO5 or XPO1 binding
- effect on infection (in words) ([1]; Pen peptide 100 µM, time of addition experiment): had no effect on infection
